Assay results reported in US20220184008A1, “MODULATORS OF INTRACELLULAR CHLORIDE CONCENTRATION” (FONDAZIONE ISTITUTO ITALIANO DI TECNOLOGIA, priority 2019, published 2022).

Biological target: T1, NKCC1 (Homo sapiens, UniProt P55011)
T1 construct: expressed in transfected cells; host or cells: HEK293
T1 sequence (P55011 1-1212): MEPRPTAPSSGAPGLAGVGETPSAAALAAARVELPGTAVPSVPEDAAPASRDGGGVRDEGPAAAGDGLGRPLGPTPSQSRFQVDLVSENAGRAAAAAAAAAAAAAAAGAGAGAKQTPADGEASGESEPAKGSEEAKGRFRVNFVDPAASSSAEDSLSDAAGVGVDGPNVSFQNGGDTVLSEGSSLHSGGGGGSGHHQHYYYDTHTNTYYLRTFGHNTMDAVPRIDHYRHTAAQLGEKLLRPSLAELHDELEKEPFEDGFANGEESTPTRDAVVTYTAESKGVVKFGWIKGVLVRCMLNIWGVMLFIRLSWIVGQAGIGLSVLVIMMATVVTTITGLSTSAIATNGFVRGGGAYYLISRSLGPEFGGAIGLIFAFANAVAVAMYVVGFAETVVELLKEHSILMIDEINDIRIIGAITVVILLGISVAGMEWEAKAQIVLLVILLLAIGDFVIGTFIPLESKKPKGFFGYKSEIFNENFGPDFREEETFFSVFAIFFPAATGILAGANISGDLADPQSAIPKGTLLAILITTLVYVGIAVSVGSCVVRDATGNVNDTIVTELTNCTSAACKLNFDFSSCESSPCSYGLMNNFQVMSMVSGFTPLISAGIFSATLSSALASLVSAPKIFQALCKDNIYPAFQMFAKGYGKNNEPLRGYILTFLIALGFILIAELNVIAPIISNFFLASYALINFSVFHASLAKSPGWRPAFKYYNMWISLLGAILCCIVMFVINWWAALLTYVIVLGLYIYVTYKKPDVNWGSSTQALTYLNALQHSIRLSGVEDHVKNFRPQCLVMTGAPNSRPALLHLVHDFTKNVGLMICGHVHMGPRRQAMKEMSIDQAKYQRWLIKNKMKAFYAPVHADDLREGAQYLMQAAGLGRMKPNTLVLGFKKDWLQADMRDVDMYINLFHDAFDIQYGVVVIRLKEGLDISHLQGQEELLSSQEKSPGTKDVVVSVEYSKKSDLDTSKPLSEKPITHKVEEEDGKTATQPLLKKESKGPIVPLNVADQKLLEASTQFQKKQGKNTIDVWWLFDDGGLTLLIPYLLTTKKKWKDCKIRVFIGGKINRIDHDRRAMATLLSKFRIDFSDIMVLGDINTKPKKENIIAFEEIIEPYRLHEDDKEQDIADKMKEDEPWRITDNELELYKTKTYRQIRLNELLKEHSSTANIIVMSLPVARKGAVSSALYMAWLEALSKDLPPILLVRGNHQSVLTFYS
Assay: Chloride kinetic assay (Cl-sensitive YFP) in NKCC1-transfected HEK293 cells
Format: cell-based
Details: for NKCC1 Inhibition % 10 μM HEK Chloride YFP assay / inhibition at 10 µM: NKCC1-transfected HEK293; for inhibition at 10 µM: read-out: NKCC1 Inhibition % 10 μM HEK Chloride YFP assay

Molecule | NKCC1 Inhibition % 10 μM HEK Chloride YFP assay (Table 1) | NKCC1 Inhibition % 10 μM HEK Chloride YFP assay (Table 2) | inhibition at 10 µM (Table 1) [%] | other results
CCCCNc1ccc(C(=O)O)cc1S(N)(=O)=O [Compound 2.6, 4-(butylamino)-3-sulfamoyl-benzoic acid] | Inactive | Inactive |  | 
CCCCCCNc1ccc(C(=O)O)cc1S(N)(=O)=O [Compound 2.7, 4-(hexylamino)-3-sulfamoyl-benzoic acid] |  |  | 4 | 
CCCCCCCCNc1ccc(C(=O)O)cc1S(N)(=O)=O [Compound 2.8, 4-(octylamino)-3-sulfamoyl-benzoic acid] |  |  | 5 | 
CC(C)(C)CCNc1ccc(C(=O)O)cc1S(N)(=O)=O [Compound 2.9, 4-(3,3-dimethylbutylamino)-3-sulfamoyl-benzoic acid] |  |  | 1 | 
CCCCNc1ccc(C(=O)O)cc1S(=O)(=O)NC [Compound 3.6, 4-(butylamino)-3-(methylsulfamoyl)benzoic acid] |  |  | 8 | 
CCCCCCNc1ccc(C(=O)O)cc1S(=O)(=O)NC [Compound 3.7, 4-(hexylamino)-3-(methylsulfamoyl)benzoic acid] | Inactive | Inactive |  | 
CCCCCCCCNc1ccc(C(=O)O)cc1S(=O)(=O)NC [Compound 3.8, 3-(methylsulfamoyl)-4-(octylamino)benzoic acid] |  |  | 16 | 
CNS(=O)(=O)c1cc(C(=O)O)ccc1NCCC(C)(C)C [Compound 3.9, 4-(3,3-dimethylbutylamino)-3-(methylsulfamoyl)benzoic acid] | Inactive | Inactive |  | 
CCCCNc1ccc(C(=O)O)cc1S(=O)(=O)N(C)C [Compound 3.11, 4-(butylamino)-3-(dimethylsulfamoyl)benzoic acid] |  |  | 9 | 
CCCCCCNc1ccc(C(=O)O)cc1S(=O)(=O)N(C)C [Compound 3.12, 3-(dimethylsulfamoyl)-4-(hexylamino)benzoic acid] |  |  | 8 | 
CCCCCCCCNc1ccc(C(=O)O)cc1S(=O)(=O)N(C)C [Compound 3.13, 3-(dimethylsulfamoyl)-4-(octylamino)benzoic acid] | Inactive | Inactive |  | 
CN(C)S(=O)(=O)c1cc(C(=O)O)ccc1NCCC(C)(C)C [Compound 3.14, 4-(3,3-dimethylbutylamino)-3-(dimethylsulfamoyl)benzoic acid] | Inactive | Inactive |  | 
CN(C)S(=O)(=O)c1cc(C(=O)O)ccc1NCCCCCCCC(F)(F)F [Compound 3.17, 3-(dimethylsulfamoyl)-4-(8,8,8-trifluorooctylamino) benzoic acid] |  |  | 37 | NKCC1 inhibition compared with bumetanide and furosemide (100 μM): better than bumetanide and furosemide
Furosemide [reference compound] | Inactive | Inactive |  | effect on decrease in fluorescence upon NaCl application in NKCC1-transfected cells (pre-incubation at 10 μM and 100 μM): effective at 100 μM only
